Structures can show the parent of a compound that is named as a salt.
Experiment: Solubility of terbinafine HCl in isopropyl alcohol
Type: physicochemical
Method: Terbinafine free base was prepared by adding 2.0 g of terbinafine HCl to 8.0 g of isopropyl alcohol (IPA) and 4.0 g Dowex Marathon A OH ion exchange resin. This resin exchanges OH^− for Cl^− and was washed with IPA prior to use. With the Cl^− removed from solution, the free base formed and the terbinafine went into solution within 5-10 minutes. (Terbinafine HCl is soluble in IPA up to 3.7%.) The reaction with the resin was run for 4 hours. Presence of the free base was confirmed by adding a drop of this IPA solution into water and measuring pH with a color strip. Adding the IPA solution caused the water pH to increase approximately one unit. The resin added OH^− to the solution, which reacted with H^+ and increased the water content. Excess water was removed by storing the terbinafine free base solution over molecular sieves for one week.

soluble in IPA up to: 3.7%
SMILES: CN(C/C=C/C#CC(C)(C)C)Cc1cccc2ccccc12 [Terbinafine HCl, terbinafine HCl]
